In patent publication US8906946B2, “TRPM8 receptor antagonists” (Dompe' S.p.A., priority 2011, dated 2014):

Target: T1, human TRPM8 (Homo sapiens, UniProt Q7Z2W7)
Assay: High-throughput FLIPR TETRA calcium fluorescence assay for TRPM8 antagonists in HEK293/hTRPM8 cells
Assay type: cell-based
Design: expressed in transfected cells
Settings: agonist Cooling Agent 10 at EC80, Ca2+ fluorescence
Excerpt: A functional cell-based assay for the identification of TRPM8 receptor antagonists, optimised to allow high throughput screening at FLIPR^TETRA, was developed in HEK293 cells by stable pure clone selection and functional characterization with a fluorescent calcium sensitive dye.
TRPM8 was cloned into the multiple clonig site of pcDNA3 mammalian expression vector; the obtained construct pcDNA3/hTRPM8 was fully sequence verified and used for the transfection of HEK293 cell line. HEK293 cells stably transfected with TRPM8 gene were maintained in Minimum essential medium. The cells were transfected with the pcDNA3/hTRPM8 vector by electroporation and then selected with medium containing 0.8 mg/ml G418 for 10-15 days.
The following commercial compounds were used as ligands: • Activator: Cooling Agent 10 (Takasago CAS N. 87061-04-9) • Blocker: Capsazepine (SIGMA cat #D—5879)
The experimental activities were performed using FLIPR^TETRA instruments.
HEK293 cells stably transfected with TRPM8 gene were maintained in Minimum essential medium.
The TRPM8 cell line was analysed for the response to a library of compounds using a Ca^2+ mobilization-dependent fluorescence signal in 384 wells microtiter plate format. The analysis was performed using the FLIPR^TETRA (MDC) with the ICCD Camera.
The execution of the assay involved the use of three microtiter plates:
1. Assay plate, containing cells loaded with dye and prepared as follows:
Cells were seeded at 15000 c/well in Poly-D-Lysine coated 384 wells Microtiter Plates in complete medium (25 μl/well).
24 h after seeding, the cell plates were washed with Tyrode assay buffer by the Microplate Washer and 10 μL of Tyrode assay buffer was left in each well.
Cells were then loaded with 10 μL/well of the Fluo-4 NW dye solution by CyBi®-Well pipettor. Each bottle of Fluo4-NW dye (Molecular Probes cat. #F36206, component A) was re-suspended in 8 mL of Tyrode assay buffer and supplemented with 100 μL of water-soluble probenecid (MolecularProbes cat.#F36206, component B).
Dye loaded cell plates were incubated for 1 h at room temperature.
2. Compound Dilution Plate (FIG. 1), containing diluted test compounds, formulated as follows: • Column 1: wells containing Assay Buffer plus DMSO 0.5% final • Column 2: wells alternating Max Signal Control in first injection (Maximum Response: Cooling Agent 10 at EC100, 100 μM) and Min Signal Control in first injection (Assay buffer plus 0.5% DMSO final); • Columns 3-22: wells containing Assay Buffer plus 0.5% DMSO final. To these wells the compounds to be tested were added at 3× concentration. • Column 23: alternating wells of Max Signal Control in second injection (Assay buffer) and Min Signal Control in second injection (Antagonist Capsazepine IC100, 50 μM) in Assay buffer plus 0.5% DMSO final; • Column 24: wells containing Capsazepine (Antagonist) at 8 concentrations in duplicate at final concentrations of […] in Assay buffer plus 0.5% DMSO final.
3. Activator Plate (FIG. 2), containing agonist Cooling Agent 10 at EC80, formulated as follows: • Column 1: Cooling Agent 10 (Agonist) at 8 concentrations dose response in duplicate at final concentrations of […] in Assay buffer; • Columns 2-24: Cooling Agent 10 (Agonist) at EC80 (3 fold concentrated, 20 μM final) in Assay buffer.
The test was carried out according to a procedure comprising the following steps: • 1. The samples contained in the wells of the Compound Plate were added to the corresponding wells of the Assay Plate by the FLIPR^TETRA, thus resulting in the addition in Columns 3-22 of the test compounds at 3× concentration to the cells of the assay plates. No mixing was performed in the assay wells and the signal of the emitted fluorescence was recorded for 300 seconds. • 2.

T1 sequence (Q7Z2W7 whole entry): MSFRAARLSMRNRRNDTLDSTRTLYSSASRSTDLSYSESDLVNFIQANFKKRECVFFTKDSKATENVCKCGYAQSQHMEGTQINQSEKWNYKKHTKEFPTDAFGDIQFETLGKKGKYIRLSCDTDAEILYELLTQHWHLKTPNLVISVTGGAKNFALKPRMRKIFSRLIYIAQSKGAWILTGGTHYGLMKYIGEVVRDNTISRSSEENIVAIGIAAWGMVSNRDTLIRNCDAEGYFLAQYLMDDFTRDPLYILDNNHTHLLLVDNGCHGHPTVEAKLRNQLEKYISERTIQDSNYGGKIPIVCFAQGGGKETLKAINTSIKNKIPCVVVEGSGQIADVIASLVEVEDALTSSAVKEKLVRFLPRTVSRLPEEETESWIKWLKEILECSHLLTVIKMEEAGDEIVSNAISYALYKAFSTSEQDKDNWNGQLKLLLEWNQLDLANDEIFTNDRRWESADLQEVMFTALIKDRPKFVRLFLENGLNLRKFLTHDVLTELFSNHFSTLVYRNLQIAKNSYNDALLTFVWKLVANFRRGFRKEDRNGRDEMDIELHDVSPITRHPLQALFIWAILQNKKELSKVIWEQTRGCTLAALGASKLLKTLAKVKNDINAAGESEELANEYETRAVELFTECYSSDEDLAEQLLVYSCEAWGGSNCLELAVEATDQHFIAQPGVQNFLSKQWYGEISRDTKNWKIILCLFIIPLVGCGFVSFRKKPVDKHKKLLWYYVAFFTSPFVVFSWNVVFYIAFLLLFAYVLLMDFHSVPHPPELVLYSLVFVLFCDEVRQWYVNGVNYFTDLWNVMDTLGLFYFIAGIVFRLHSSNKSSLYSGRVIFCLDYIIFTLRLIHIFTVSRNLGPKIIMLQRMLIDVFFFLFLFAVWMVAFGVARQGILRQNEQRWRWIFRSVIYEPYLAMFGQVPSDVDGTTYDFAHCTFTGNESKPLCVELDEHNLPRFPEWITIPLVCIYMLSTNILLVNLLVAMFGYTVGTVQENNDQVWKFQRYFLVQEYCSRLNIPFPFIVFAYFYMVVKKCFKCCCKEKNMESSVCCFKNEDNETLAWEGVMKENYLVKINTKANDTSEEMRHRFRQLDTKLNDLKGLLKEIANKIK

Structure (SMILES) | IC50
Clc1ccc(CNCCCc2ccc3ccccc3c2Cl)o1 [Compound 34, N-[(5-chlorofuran-2-yl)methyl]-3-(1-chloronaphthalen-2-yl)propan-1-amine] | < 10 µM
Clc1ccc(CNCCCc2ccc3ccccc3c2Cl)s1 [Compound 35, 3-(1-chloronaphthalen-2-yl)-N-[(5-chlorothiophen-2-yl)methyl]propan-1-amine] | < 10 µM
Fc1c(OCCNCc2ccco2)ccc2ccccc12 [Compound 48, 2-[(1-fluoronaphthalen-2-yl)oxy]-N-(furan-2-ylmethyl)ethanamine] | < 10 µM
Fc1c(OCCNCc2cccs2)ccc2ccccc12 [Compound 52, 2-[(1-fluoronaphthalen-2-yl)oxy]-N-(thiophen-2-ylmethyl)ethanamine] | < 10 µM
Fc1c(OCCNCc2ccccn2)ccc2ccccc12 [Compound 53, 2-[(1-fluoronaphthalen-2-yl)oxy]-N-(pyridin-2-ylmethyl)ethanamine] | < 10 µM
N#Cc1ccc2c(Cl)c(OCCNCc3ccccn3)ccc2c1 [Compound 55, 5-chloro-6-{2-[(pyridin-2-ylmethyl)amino]ethoxy}naphthalene-2-carbonitrile] | < 10 µM
N#Cc1ccc2c(Cl)c(OCCNCc3cccs3)ccc2c1 [Compound 60, 5-chloro-6-{2-[(thiophen-2-ylmethyl)amino]ethoxy}naphthalene-2-carbonitrile] | < 10 µM

The remaining lines, values ahead:

IC50 | Structure (SMILES)
< 10 µM | Clc1c(OCCNCc2cccs2)ccc2ccccc12 [Compound 5, 2-[(1-chloronaphthalen-2-yl)oxy]-N-(thiophen-2-ylmethyl)ethanaminium]
< 10 µM | Clc1c(OCCNCc2ccccn2)ccc2ccccc12 [Compound 6, 2-[(1-chloronaphthalen-2-yl)oxy]-N-(pyridin-2-ylmethyl)ethanaminium]
< 10 µM | CC(C)(COc1ccc2ccccc2c1Cl)NCc1ccco1 [Compound 8, 1-[(1-chloronaphthalen-2-yl)oxy]-N-(furan-2-ylmethyl)-2-methylpropan-2-amine]
< 10 µM | CC(C)(COc1ccc2ccccc2c1Cl)NCc1ccccn1 [Compound 13, 1-[(1-chloronaphthalen-2-yl)oxy]-2-methyl-N-(pyridin-2-ylmethyl)propan-2-amine]
< 10 µM | Cn1cccc1CNC(C)(C)COc1ccc2ccccc2c1Cl [Compound 14, 1-[(1-chloronaphthalen-2-yl)oxy]-2-methyl-N-[(1-methyl-1H-pyrrol-2-yl)methyl]propan-2-amine]
< 10 µM | O=S(=O)(CCNCc1ccco1)c1ccc2ccccc2c1Cl [Compound 25, 2-[(1-chloronaphthalen-2-yl)sulfonyl]-N-(furan-2-ylmethyl)ethanamine]
< 10 µM | Clc1c(CCCNCc2ccco2)ccc2ccccc12 [Compound 32, 3-(1-chloronaphthalen-2-yl)-N-(furan-2-ylmethyl)propan-1-amine]
< 10 µM | Cc1ccc(CNCCCc2ccc3ccccc3c2Cl)o1 [Compound 33, 3-(1-chloronaphthalen-2-yl)-N-[(5-methylfuran-2-yl)methyl]propan-1-amine]

Target: T1, human TRPM8
Assay: FLIPR384 capsazepine antagonist activity on menthol agonist response in selected TRPM8 clone
Assay type: cell-based
Design: expressed in transfected cells
Settings: FLIPR384, antagonist from 100 nM to 316 μM
Method: The experimental activities were performed using FLIPR instruments.
Patch clamp recordings were also obtained in voltage-clamp configuration on HEK/TRPM8 clones in order to verify the receptor pharmacology and to determine the agonist dose-response curve and EC50 value. HEK293 cells were […] having 1.5-2.5 MΩ resistance were used to record currents following drug application. […] No menthol-induced currents were recorded in non transfected HEK293 cells.

IC50 | Structure (SMILES)
20 µM | Oc1cc2c(cc1O)CN(C(=S)NCCc1ccc(Cl)cc1)CCC2 [capsazepine, Capsazepine]
